Measured values: ChEMBL document CHEMBL1201862, “PubChem BioAssay data set” (2004)
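How tested: cells in 96-well plates exposed to compound for 48 hours at five concentrations. GI50 marks 50% less growth.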 Activity calls are given as the source filed them. Rule as the data show it: active = GI50 up to about 1.1 µM and inactive = higher.

Assays:
Assay in all cases: NCI anticancer screen, dose series, 48 h
T47D = test system: T47D
MDA-N = test system: MDA-N
MDA-MB-435 = test system: MDA-MB-435
Hs-578T = test system: Hs-578T
PC-3 = test system: PC-3
BT-549 = test system: BT-549
MDA-MB-231 = test system: MDA-MB-231
RXF 631 = test system: RXF 631

Measured: GI50

CC1(C)OCC=CCO1
inactive: T47D > 100 µM | MDA-N > 100 µM | MDA-MB-435 > 100 µM | Hs-578T > 100 µM | PC-3 > 100 µM | BT-549 > 100 µM

CC[C@@H]1ON(C)[C@H]2CN(C)C(=O)[C@@H]12
inactive: T47D > 100 µM | MDA-MB-231 > 100 µM | MDA-N > 100 µM | MDA-MB-435 > 100 µM | Hs-578T > 100 µM | PC-3 > 100 µM

N#Cc1ccc([N+](=O)[O-])cc1NC(N)=S
inactive: RXF 631 > 100 µM
